Reference: patent US8435744B2 (priority 2005, dated 2013)

Biological target: PrP^C from uninfected N2a58 cells (Mus musculus, UniProt P04925)
Assay type: cell-based, murine
Details: normal N2a58 cells, 3 days, 5 to 20 μM, before and after PK, FIG. 5

Chain of PrP^C from uninfected N2a58 cells (P04925 23-230 limits assumed): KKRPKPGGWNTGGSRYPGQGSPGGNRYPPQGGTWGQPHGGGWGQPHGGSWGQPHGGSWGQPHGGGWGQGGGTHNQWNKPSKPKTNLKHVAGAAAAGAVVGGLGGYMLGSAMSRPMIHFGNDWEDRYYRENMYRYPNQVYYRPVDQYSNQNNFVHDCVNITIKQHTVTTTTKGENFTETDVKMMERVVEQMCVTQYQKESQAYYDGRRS

In the case of CSc1nccc(-c2ccc(Br)s2)n1 [compound A, 4-(5-bromo-2-thienyl)-2-(methylthio)pyrimidine], the “oligomeric forms of normal PrP or bands resistant to proteinase K digestion” value is reported as “does not make it possible to demonstrate oligomeric forms of the normal prion protein, PrP nor the appearance of bands resistant to proteinase K digestion”.
